Experimental data as given in patent US8604218B2, “Cytoskeletal active rho kinase inhibitor compounds, composition and use” (Inspire Pharmaceuticals, Inc., priority 2006, dated 2013).
pIC50: −log10 of the molar value.

biological target: ROCK2 (Homo sapiens (Human), UniProt O75116); experiment: Rho Kinase Inhibition Assay (IMAP fluorescence polarization); type: biochemical; conditions: isolated enzyme, 10 μM ATP, 60 minutes at room temperature
Experimental: Following the preincubation, 10 μM ATP was added to initiate the reaction. After 60 minutes at room temperature, Molecular Devices IMAP™ binding solution was added to bind phosphorylated substrate. After 30 minutes of incubation in the presence of the IMAP™ beads the fluorescence polarization was read and the ratio was reported as mP. IC50 results were calculated using the Prism software from Graphpad.
See Tian et al., Arch. Ophthalmol. […] Ophthalmol. Vis. […] Ophthalmol. […] Cytoskel. […] Ophthalmol. Vis. […] Ophthalmol. Vis.

Sequence of ROCK2 (O75116 11-552): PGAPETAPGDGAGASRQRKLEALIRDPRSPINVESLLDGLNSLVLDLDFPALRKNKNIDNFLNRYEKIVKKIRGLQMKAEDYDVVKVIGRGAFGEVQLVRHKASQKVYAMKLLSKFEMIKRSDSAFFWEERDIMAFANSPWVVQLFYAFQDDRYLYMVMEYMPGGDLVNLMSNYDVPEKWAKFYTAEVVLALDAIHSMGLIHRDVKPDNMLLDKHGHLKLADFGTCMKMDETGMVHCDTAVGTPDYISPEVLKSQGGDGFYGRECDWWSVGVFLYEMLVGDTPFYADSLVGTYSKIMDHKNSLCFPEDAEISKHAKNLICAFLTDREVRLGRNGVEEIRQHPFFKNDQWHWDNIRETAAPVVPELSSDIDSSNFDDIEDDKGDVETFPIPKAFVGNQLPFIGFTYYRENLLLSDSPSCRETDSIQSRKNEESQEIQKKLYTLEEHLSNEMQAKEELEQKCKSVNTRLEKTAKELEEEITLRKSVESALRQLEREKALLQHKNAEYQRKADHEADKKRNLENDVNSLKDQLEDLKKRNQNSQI

Row | SMILES | pIC50
1 | c1cc(CN2CC[C@@H](Nc3cccc4cnccc34)C2)cc(C2CC2)c1 [Compound 2.020, (R)-N-(1-(3-cyclopropylbenzyl)pyrrolidin-3-yl)isoquinolin-5-amine] | 6.09
2 | O=C(COc1cccc(CN2CC[C@@H](Nc3cccc4cnccc34)C2)c1)N1CCOCC1 [Compound 2.043, (R)-2-(3-((3-(isoquinolin-5-ylamino)pyrrolidin-1-yl)methyl)phenoxy)-1-morpholinoethanone] | 6.42
3 | CN(C)CCCOc1ccc(CN2CCC(Nc3ccc4[nH]ncc4c3)C2)cc1 (centres unmarked) [Compound 1.007, N-(1-(4-(3-(dimethylamino)propoxy)benzyl)pyrrolidin-3-yl)-1H-indazol-5-amine] | 5.46
4 | c1ccc(-c2ccc(CN3CCCC(Nc4ccc5[nH]ncc5c4)C3)cc2)cc1 (centres unmarked) [Compound 1.009, N-(1-(biphenyl-4-ylmethyl)piperidin-3-yl)-1H-indazol-5-amine] | 5.79
5 | Clc1ccc(CN2CCC[C@H](Nc3ccc4[nH]ncc4c3)C2)cc1 [Compound 1.081, (S)-N-(1-(4-chlorobenzyl)piperidin-3-yl)-1H-indazol-5-amine] | 7.52
6 | c1cc(CN2CCCC(Nc3ccc4[nH]ncc4c3)C2)cc(C2CC2)c1 (centres unmarked) [Compound 1.021, N-(1-(3-cyclopropylbenzyl)piperidin-3-yl)-1H-indazol-5-amine] | 6.26
7 | OCCCOc1cccc(CN2CCCC(Nc3ccc4[nH]ncc4c3)C2)c1 (centres unmarked) [Compound 1.084, 3-(3-((3-(1H-indazol-5-ylamino)piperidin-1-yl)methyl)phenoxy)propan-1-ol] | 6.56
8 | Cc1ccc(CN2CCCC(Nc3ccc4[nH]ncc4c3)C2)cc1OCCO (centres unmarked) [Compound 1.058, 2-(5-((3-(1H-indazol-5-ylamino)piperidin-1-yl)methyl)-2-methylphenoxy)ethanol] | 7.32
9 | c1cc(N[C@H]2CCN(Cc3ccc(SC4CC4)cc3)C2)c2ccncc2c1 [Compound 2.024, (S)-N-(1-(4-(cyclopropylthio)benzyl)pyrrolidin-3-yl)isoquinolin-5-amine] | 5.05
10 | Clc1ccc(Oc2cccc(CN3CCCC(Nc4ccc5[nH]ncc5c4)C3)c2)cc1 (centres unmarked) [Compound 1.069, N-(1-(3-(4-chlorophenoxy)benzyl)piperidin-3-yl)-1H-indazol-5-amine] | 5.22
11 | OCCC#Cc1ccc(CN2CCCC(Nc3ccc4[nH]ncc4c3)C2)cc1 (centres unmarked) [Compound 1.043, 4-(4-((3-(1H-indazol-5-ylamino)piperidin-1-yl)methyl)phenyl)but-3-yn-1-ol] | 4.93
12 | CN(C)Cc1ccc(CN2CCCC(Nc3ccc4[nH]ncc4c3)C2)cc1 (centres unmarked) [Compound 1.019, N-(1-(4-((dimethylamino)methyl)benzyl)piperidin-3-yl)-1H-indazol-5-amine] | 4.87
13 | CC(=O)Nc1ccc(CN2CCCC(Nc3cccc4cnccc34)C2)cc1 (centres unmarked) [Compound 2.004, N-(4-((3-(isoquinolin-5-ylamino)piperidin-1-yl)methyl)phenyl)acetamide] | 5.43
14 | CC(C)(C)OC(=O)NCc1ccc(CN2CCCC(Nc3ccc4[nH]ncc4c3)C2)cc1 (centres unmarked) [Compound 1.027, tert-butyl 4-((3-(1H-indazol-5-ylamino)piperidin-1-yl)methyl)benzylcarbamate] | 5.18
15 | CSc1cccc(CN2CCCC(Nc3ccc4[nH]ncc4c3)C2)c1 (centres unmarked) [Compound 1.040, N-(1-(3-(methylthio)benzyl)piperidin-3-yl)-1H-indazol-5-amine] | 6.84
16 | CCCCc1ccc(CN2CCCC(Nc3ccc4[nH]ncc4c3)C2)cc1 (centres unmarked) [Compound 1.014, N-(1-(4-butylbenzyl)piperidin-3-yl)-1H-indazol-5-amine] | 5.33
17 | FC(F)(F)c1cccc(CN2CCC(Nc3ccc4[nH]ncc4c3)C2)c1 (centres unmarked) [Compound 1.064, N-(1-(3-(trifluoromethyl)benzyl)pyrrolidin-3-yl)-1H-indazol-5-amine] | 6.78
18 | CCS(=O)(=O)Nc1cccc(CN2CC[C@@H](Nc3cccc4cnccc34)C2)c1 [Compound 2.041, (R)-N-(3-((3-(isoquinolin-5-ylamino)pyrrolidin-1-yl)methyl)phenyl)ethanesulfonamide] | 6.77
19 | OCCOc1cccc(CN2CCC(Nc3ccc4[nH]ncc4c3)CC2)c1 [Compound 1.130, 2-(3-((4-(1H-indazol-5-ylamino)piperidin-1-yl)methyl)phenoxy)ethanol] | 5.57
20 | c1cc(CN2CCCC(Nc3cccc4cnccc34)C2)cc(C2CC2)c1 (centres unmarked) [Compound 2.011, N-(1-(3-cyclopropylbenzyl)piperidin-3-yl)isoquinolin-5-amine] | 5.39
21 | NCc1ccc(CN2CCCC(Nc3ccc4[nH]ncc4c3)C2)cc1 (centres unmarked) [Compound 1.035, N-(1-(4-(aminomethyl)benzyl)piperidin-3-yl)-1H-indazol-5-amine] | 6.68
22 | NC(=O)Cn1ccc2ccc(CN3CCC[C@H](Nc4ccc5[nH]ncc5c4)C3)cc21 [Compound 1.107, (S)-2-(6-((3-(1H-indazol-5-ylamino)piperidin-1-yl)methyl)-1H-indol-1-yl)acetamide] | 6.83

Row | SMILES | pIC50
23 | c1cc2c(cc1CN1CCCC(Nc3ccc4[nH]ncc4c3)C1)OCCO2 (centres unmarked) [Compound 1.053, N-(1-((2,3-dihydrobenzo[b][1,4]dioxin-6-yl)methyl)piperidin-3-yl)-1H-indazol-5-amine] | 6.72
24 | CS(=O)(=O)c1ccc(CN2CCC(Nc3ccc4[nH]ncc4c3)C2)cc1 (centres unmarked) [Compound 1.004, N-(1-(4-(methylsulfonyl)benzyl)pyrrolidin-3-yl)-1H-indazol-5-amine] | 6.60
25 | NC(=O)COc1cccc(CN2CC[C@@H](Nc3cccc4cnccc34)C2)c1 [Compound 2.040, (R)-2-(3-((3-(isoquinolin-5-ylamino)pyrrolidin-1-yl)methyl)phenoxy)acetamide] | 6.56
26 | CC(C)(C)OC(=O)Cn1ccc2cc(CN3CCCC(Nc4ccc5[nH]ncc5c4)C3)ccc21 (centres unmarked) [Compound 1.112, tert-butyl 2-(5-((3-(1H-indazol-5-ylamino)piperidin-1-yl)methyl)-1H-indol-1-yl)acetate] | 5.69
27 | CS(=O)(=O)Nc1cccc(CN2CCC[C@H](Nc3cccc4cnccc34)C2)c1 [Compound 2.037, (S)-N-(3-((3-(isoquinolin-5-ylamino)piperidin-1-yl)methyl)phenyl)methanesulfonamide] | 5.51
28 | c1ccc(CN2CCC(Nc3cccc4cnccc34)C2)cc1 (centres unmarked) [Compound 2.006, N-(1-benzylpyrrolidin-3-yl)isoquinolin-5-amine] | 7.13
29 | N#Cc1cccc(CN2CCCC(Nc3cccc4cnccc34)C2)c1 (centres unmarked) [Compound 2.003, 3-((3-(isoquinolin-5-ylamino)piperidin-1-yl)methyl)benzonitrile] | 5.24
30 | OCCn1ccc2cc(CN3CCCC(Nc4ccc5[nH]ncc5c4)C3)ccc21 (centres unmarked) [Compound 1.114, 2-(5-((3-(1H-indazol-5-ylamino)piperidin-1-yl)methyl)-1H-indol-1-yl)ethanol] | 5.83
31 | c1cc(N[C@@H]2CCN(Cc3ccc(SC4CC4)cc3)C2)c2ccncc2c1 [Compound 2.021, (R)-N-(1-(4-(cyclopropylthio)benzyl)pyrrolidin-3-yl)isoquinolin-5-amine] | 5.72
32 | CSc1ccc(CN2CCCC(Nc3ccc4[nH]ncc4c3)C2)cc1 (centres unmarked) [Compound 1.008, N-(1-(4-(methylthio)benzyl)piperidin-3-yl)-1H-indazol-5-amine] | 7.18
33 | O=C(O)Cn1ccc2cc(CN3CCCC(Nc4ccc5[nH]ncc5c4)C3)ccc21 (centres unmarked) [Compound 1.119, 2-(5-((3-(1H-indazol-5-ylamino)piperidin-1-yl)methyl)-1H-indol-1-yl)acetic acid] | 5.44
34 | COc1ccc(CN2CCC(Nc3cccc4cnccc34)C2)cc1 (centres unmarked) [Compound 2.017, N-(1-(4-methoxybenzyl)pyrrolidin-3-yl)isoquinolin-5-amine] | 6.49
35 | NC(=O)c1cccc(CN2CCCC(Nc3ccc4[nH]ncc4c3)C2)c1 (centres unmarked) [Compound 1.055, 3-((3-(1H-indazol-5-ylamino)piperidin-1-yl)methyl)benzamide] | 6.33
36 | Cc1n[nH]c2ccc(NC3CCCN(Cc4ccccc4)C3)cc12 (centres unmarked) [Compound 1.049, N-(1-benzylpiperidin-3-yl)-3-methyl-1H-indazol-5-amine] | 6.22
37 | CC(C)Oc1ccc(CN2CCCC(Nc3ccc4[nH]ncc4c3)C2)cc1 (centres unmarked) [Compound 1.015, N-(1-(4-isopropoxybenzyl)piperidin-3-yl)-1H-indazol-5-amine] | 5.00
38 | OCCOc1cccc(CN2CC[C@@H](Nc3cccc4cnccc34)C2)c1 [Compound 2.039, (R)-2-(3-((3-(isoquinolin-5-ylamino)pyrrolidin-1-yl)methyl)phenoxy)ethanol] | 7.00
39 | CSc1ccc(CN2CCCC(Nc3cccc4cnccc34)C2)cc1 (centres unmarked) [Compound 2.009, N-(1-(4-(methylthio)benzyl)piperidin-3-yl)isoquinolin-5-amine] | 6.43
40 | FC(F)(F)c1cccc(Oc2cccc(CN3CCCC(Nc4ccc5[nH]ncc5c4)C3)c2)c1 (centres unmarked) [Compound 1.070, N-(1-(3-(3-(trifluoromethyl)phenoxy)benzyl)piperidin-3-yl)-1H-indazol-5-amine] | 5.18
41 | OCCOc1cccc(CN2CCCC(Nc3ccc4[nH]ncc4c3)C2)c1 (centres unmarked) [Compound 1.039, 2-(3-((3-(1H-indazol-5-ylamino)piperidin-1-yl)methyl)phenoxy)ethanol] | 6.48
42 | Oc1cc(CN2CCCC(Nc3ccc4[nH]ncc4c3)C2)ccc1I (centres unmarked) [Compound 1.068, 5-((3-(1H-indazol-5-ylamino)piperidin-1-yl)methyl)-2-iodophenol] | 6.18
43 | CC(=O)NCc1cccc(CN2CCCC(Nc3ccc4[nH]ncc4c3)C2)c1 (centres unmarked) [Compound 1.122, N-(3-((3-(1H-indazol-5-ylamino)piperidin-1-yl)methyl)benzyl)acetamide] | 6.60
44 | C=Cc1ccc(CN2CCCC(Nc3ccc4[nH]ncc4c3)C2)cc1 (centres unmarked) [Compound 1.037, N-(1-(4-vinylbenzyl)piperidin-3-yl)-1H-indazol-5-amine] | 7.16
